Columns and labels:
[1] = test system: C. acnes strain C3; experiment: Minimum inhibitory concentration (MIC) / compatibility of cosmetic excipients; assay type: cell-based, Cutibacterium acnes; settings: % w/vol, incubated anaerobically 3 days at 37° C, growth scored visually
Method: (§1) In microbiology, the MIC is the lowest concentration of a chemical which prevents visible growth of bacterium. The resulted MIC value depends both on the microorganism and the test compound. The MIC is determined by preparing concentrations series of the test compound in vitro, incubating the solutions with the separate batches of cultured bacteria, and measuring the results using agar dilution or broth microdilution. For the experiments with C. acnes strains C3 and K8, media comprising yeast extract soy peptone and dextrose were used. The MIC is determined by turbidity.
(§2) A total of 125 cosmetic excipients were tested for their compatibility with C. acnes strains C3 and K8. Hydrophilic compounds were tested in a 96-well plate liquid broth format, poorly soluble compounds were pre-dissolved in DMSO before dilution in liquid broth and hydrophobic or solid compounds were tested in an agar well diffusion test assay. The different dilutions of the test excipients in media were prepared in Falcon tubes and then distributed in a deep well plate using a multistepper. Each well received 1.2 ml and was subsequently inoculated with 120 μl of C. acnes bacteria suspension (strain C3 and K8). From the deep well plate 200 μl were transferred in each well of a clear 96 well replicate plate. The leftover was discarded. The plates were then incubated anaerobically for 3 days at 37° C. Following incubation, the test plates were visually examined and wells were scored for growth or complete growth inhibition to define the minimum inhibitory concentration.
(§3) These excipients are listed in the below table with their compatibility values for C. acnes strains C3 and K8. The compatibility values represent the MIC value of the listed ingredients with the tested C. acnes strains. At this concentration [% w/vol] the tested compound starts interfering with the growth of the tested strains. The compounds can be used in formulations at concentrations below this concentration.

[2] = test system: C. acnes strain K8; experiment: as above; assay type: cell-based, Cutibacterium acnes; settings: % w/vol, incubated anaerobically 3 days at 37° C, growth scored visually
Method: as §1, §2, §3

Compound | COMPATABILITY VALUE C3 [%] (MIC value) [1] | COMPATABILITY VALUE K8 [%] (MIC value) [2]
O=C(O)CC(O)(CC(=O)O)C(=O)O [citric acid] | 0.33 | 0.08
CC(CO)CO [methylpropanediol] | 4.00 | 4.00
CCO [ethanol] | 3.75 | 3.75
CCCCCCC(O)CO (centres unmarked) [caprylyl glycol] | 0.18 | 0.18
CC(=O)Oc1c(C)c(C)c2c(c1C)CCC(C)(CCC[C@H](C)CCC[C@H](C)CCCC(C)C)O2 (some centres unmarked) [tocopheryl acetate] | 1.00 | 1.00
ethylhexyl cocoate | 10.00 | 10.00
tocopherol | 1.50 | 1.50

— US12409129B2, “Skin care composition” (BEIERSDORF AG, priority 2019, dated 2025)
